According to PMC12040169 (PLOS Biology, 2025):

Assay: in vitro
Settings: human, hela cells, % viability

| SMILES | viability at 28.5 h, 10 µM [%] |
| --- | --- |
| CCOc1ncccc1CNc1ncnc2c1cnn2CCO [CBK305964] | 97 |
| COc1ccnc(N2CCN(C(=O)c3cc(C)nn3C)CC2)n1 [CBK305967] | 83.7 |
| Cc1cc(N(C)CCOc2ccccc2F)nc(N)n1 [CBK305969] | 79.6 |
| O=C(c1ccc(NC2CC2)nc1)N1CCC(CN2CCOCC2)CC1 [CBK305970] | 87.6 |
| CCOC(=O)C(CNC(=O)CNC(=O)c1ccoc1)Cc1ccccc1 (stereo not drawn) [CBK305971] | 92.4 |
| CN(Cc1cccc(C#N)c1)Cc1nc2c(cnn2C)c(=O)[nH]1 [CBK305973] | 109 |
| CC(NC(=O)Cc1cccc(F)c1)c1nnc2n1CCCCC2 (stereo not drawn) [CBK305975] | 85.8 |
| Cc1ccc(OCCC(=O)NCC(c2cccs2)N2CCOCC2)cc1 (stereo not drawn) [CBK305976] | 90.9 |
| OCCn1ncc2c(NCc3cccnc3-n3cccn3)ncnc21 [CBK305977] | 90.6 |
| Cc1nn(CC(=O)N2CCN(Cc3ccccn3)CC2)c(C)c1Cl [CBK305978] | 93.8 |
| COc1ncccc1CNc1ncnc2c1cnn2CCO [CBK305980] | 116 |
| C#CCNS(=O)(=O)c1cccc(C(=O)NCC2CCCN(C(C)C)C2)c1 (stereo not drawn) [CBK305981] | 109 |
| COc1ccc2[nH]cc(C3CCN(Cc4nc(C)no4)CC3)c2c1 [CBK305982] | 94.6 |
| COCc1cccc(Nc2ncnc3c2cnn3CCC#N)c1 [CBK305983] | 83.2 |
| Cc1ncc(CN(C)C(=O)Nc2cccc(C(=O)N3CCOCC3)c2)s1 [CBK305984] | 92.2 |
| Cc1cc(N2CCCC(C(=O)N3CCOCC3)C2)nc(N)n1 (stereo not drawn) [CBK305985] | 76.4 |
| CNC(=O)c1cc(S(=O)(=O)N(C2CC2)C2CCc3ccccc32)cn1C (stereo not drawn) [CBK305988] | 106 |
| COC(=O)c1cccc(OCCn2c(=O)c(C#N)cn(C3CC3)c2=O)c1 [CBK305990] | 98.6 |
| CC(NS(=O)(=O)c1ccccc1Cl)C(=O)N1CCCC1 (stereo not drawn) [CBK305994] | 93.2 |
| COC(=O)c1ccc(N2CCN(Cc3nc(C)no3)C(C)C2)cc1 (stereo not drawn) [CBK305998] | 92.3 |
| CC(C)NC(=O)Nc1ccc(C(=O)N(CCC#N)Cc2ccco2)cc1 [CBK305999] | 82.3 |

| SMILES | viability at 28.5 h, 10 µM [%] |
| --- | --- |
| CC1CCc2c(sc3ncnc(OCC(=O)N4CCOCC4)c23)C1 (stereo not drawn) [CBK306000] | 95.9 |
| Cc1cc(Br)c(O)c(C(=O)N(C)CC(=O)Nc2cc(C)on2)c1 [CBK306002] | 94.8 |
| Cc1ccnc(NCC2CCN(Cc3cc(=O)n4ccccc4n3)C2)c1 (stereo not drawn) [CBK306003] | 97.3 |
| CC1CCC(C(N)=O)CN1C(=O)c1ccc(Oc2cccc(Br)c2)nc1 (stereo not drawn) [CBK306005] | 106 |
| COc1ccccc1CN(C)S(=O)(=O)c1ccc(S(N)(=O)=O)cc1 [CBK306008] | 113 |
| CCc1nnc(SC(C)C(=O)N2CCCc3ccccc32)[nH]1 (stereo not drawn) [CBK306009] | 84.1 |
| N#Cc1ccnc(SCC(=O)Nc2ccc(CN3CCOCC3)cc2)c1 [CBK306010] | 103 |
| Cc1nn(C)c(C)c1NC(=O)COc1ccc(C#N)cc1 [CBK306011] | 87.5 |
| CCC(NC1CCc2nc(C)cn2C1)c1ccccc1O (stereo not drawn) [CBK306012] | 85.8 |
| COc1cc(CC(=O)N2CCc3c(sc4ncnc(N)c34)C2)ccc1C [CBK306013] | 103 |
| CN(CCN(C)C(=O)c1cc2sccc2[nH]1)CC(F)F [CBK306014] | 103 |
| Cc1cc(NC(=O)CS(=O)(=O)c2cccc(C(F)(F)F)c2)on1 [CBK306015] | 85.5 |
| CC(=O)Nc1ccc(CNc2ncccc2OC(F)F)cc1 [CBK306016] | 95 |
| CN(C(=O)C1(NC(N)=O)CC1)c1nc2c(s1)CC(c1ccccc1)CC2 (stereo not drawn) [CBK306022] | 93 |
| CCc1nc(C(C)NC(=O)COc2nn(C)c3nc(C)cc(C)c23)cs1 (stereo not drawn) [CBK306024] | 93.3 |
| O=C(CCNS(=O)(=O)c1ccccc1Cl)N1CCN(C(=O)C2CC2)CC1 [CBK306025] | 113 |
| COc1ccccc1CN(C)C(=O)Nc1ccc(S(N)(=O)=O)cc1 [CBK306026] | 90.4 |
| CCOCCn1c(CN2CCCCC2)nc2c1c(=O)n(C)c(=O)n2C [CBK306028] | 85.8 |
| CCn1c(CN2CC(C)CC(C)C2)nc2c1c(=O)n(C)c(=O)n2C (stereo not drawn) [CBK306030] | 84.4 |
| CCCSc1nc2cc(C(=O)OC)ccc2c(=O)n1CC1CCCO1 (stereo not drawn) [CBK306031] | 91 |
| COC(=O)CCn1c(=O)c2c(nc3oc(C(C)(C)C)cn32)n(C)c1=O [CBK306034] | 87.7 |

| SMILES | viability at 28.5 h, 10 µM [%] |
| --- | --- |
| CCn1c(C)cc(C(=O)CSc2nnc(N3CCCC3)n2C2CC2)c1C [CBK306035] | 85.5 |
| CC(C)NC(=O)CN(C)Cc1nc(-c2cccc(C(F)(F)F)c2)no1 [CBK306036] | 72.2 |
| CCN(CC(=O)NC(C)C)Cc1nc(-c2cccc(C(F)(F)F)c2)no1 [CBK306039] | 88.6 |
| Cc1oc(NC(=O)CN2CCN(c3ccccc3)CC2)c(C#N)c1C [CBK306044] | 81.7 |
| CC(Sc1nc2ccccc2c(=O)n1C1CC1)C(=O)N1CCOCC1 (stereo not drawn) [CBK306045] | 79.5 |
| CC1CCCCC1NC(=O)NC(=O)Cn1nnc2ccccc2c1=O (stereo not drawn) [CBK306046] | 90.2 |
| CCCn1c(C)c(C)n2c3c(=O)n(CCC(=O)OC)c(=O)n(C)c3nc12 [CBK306048] | 98.4 |
| COc1ccc(CC(=O)NC(CCSC)c2nc3ccccc3[nH]2)cc1 (stereo not drawn) [CBK306050] | 82.6 |
| CC(c1nc(N)nc(N(C)C)n1)N(C)CCOc1ccccc1F (stereo not drawn) [CBK306053] | 88.2 |
| Cc1cccc(N2CCN(CC(=O)Nc3cc(Cl)ccc3C#N)CC2)c1 [CBK306055] | 109 |
| Cc1sc2ncn(CC(=O)Nc3cccnc3)c(=O)c2c1C [CBK306057] | 92.5 |
| Cc1nc(C)c(CCC(=O)Nc2ccc(N3CCOCC3)cc2)c(=O)[nH]1 [CBK306059] | 88.4 |
| N#CCC(=O)Nc1ccc(C(=O)N2CCN(c3ccccc3)CC2)cc1 [CBK306060] | 91.9 |
| CCOCCn1c(CN2CCOCC2)nc2c1c(=O)n(C)c(=O)n2C [CBK306062] | 105 |
| CC1CCCN(Cc2nc3c(c(=O)n(C)c(=O)n3C)n2CC(N)=O)C1 (stereo not drawn) [CBK306064] | 82.3 |
| Cc1nn(C)c(C)c1CC(=O)N1CCc2c(sc3ncnc(N)c23)C1 [CBK306065] | 86.9 |
| Cc1sc2nc(C(C)N3CCN(Cc4ccco4)CC3)[nH]c(=O)c2c1C (stereo not drawn) [CBK306066] | 93.7 |
| CCCn1ccnc1SCC(=O)Nc1ccc(CN2CCOCC2)cc1 [CBK306068] | 87.8 |
| CCOC(=O)C1CCN(C(=O)Cn2cnc3ccc(Br)cc3c2=O)CC1 [CBK306070] | 106 |
| O=C(CSc1nccn1C1CC1)Nc1ccc(CN2CCOCC2)cc1 [CBK306071] | 98.9 |
| O=C(CSc1ccccn1)Nc1ccc(CN2CCOCC2)cc1 [CBK306072] | 91 |

| SMILES | viability at 28.5 h, 10 µM [%] |
| --- | --- |
| CC1CCCN(C(=O)CCc2nc3sc4c(c3c(=O)[nH]2)CCCC4)C1 (stereo not drawn) [CBK306073] | 87.5 |
| O=C(c1cc(S(=O)(=O)NCc2ccco2)c(Cl)cc1Cl)N1CCCC1 [CBK306076] | 87.8 |
| CCOC(=O)c1sc2nc(C(C)N3CCCCC3)[nH]c(=O)c2c1C (stereo not drawn) [CBK306078] | 111 |
| Cn1c(=O)n(CC(N)=O)c(=O)c2c1nc1oc(C(C)(C)C)cn12 [CBK306081] | 96.5 |
| Cc1ccc(CN(C)CC(=O)Nc2cc(C(F)(F)F)ccc2Cl)o1 [CBK306085] | 90.4 |
| CCN(CC(=O)NC(C)(C)C)S(=O)(=O)c1cccc(C#N)c1 [CBK306087] | 114 |
| Cc1ccnc2nc(C(=O)OC(C)C(=O)N3CCCC3)nn12 (stereo not drawn) [CBK306089] | 88.9 |
| CC(C)OC(=O)CCNC(=O)c1cccc(S(=O)(=O)N2CCCC2)c1 [CBK306090] | 91.1 |
| O=C(CN1CCN(CC(=O)NC2CC2)CC1)Nc1cc(Cl)ccc1Cl [CBK306091] | 84.8 |
| Cc1nnc(SCC(=O)Nc2ccc(CN3CCOCC3)cc2)n1C [CBK306092] | 102 |
| CS(=O)(=O)N1CCCc2cc(-c3csc(N4CCCC4)n3)ccc21 [CBK306093] | 114 |
| Cc1nn(C)c2ncc(S(=O)(=O)Nc3cc(C(N)=O)ccc3Cl)cc12 [CBK306104] | 70 |
| CCN1CCC(NCc2ccc(OCC(N)=O)cc2)CC1 [CBK306106] | 85.9 |
| CCc1nc2n(n1)CC(NCc1nc(C)ccc1O)CC2 (stereo not drawn) [CBK306107] | 106 |
| CC(C(=O)Nc1ccc(S(N)(=O)=O)cc1)N1CCCc2ccccc21 (stereo not drawn) [CBK306108] | 116 |
| C#CCNC(=O)N(C)C1CCN(c2ncnc3ccccc23)CC1 [CBK306109] | 97.6 |
| CCNC(=O)CN1CCN(c2ccc(C#N)cc2C(F)(F)F)CC1 [CBK306112] | 85 |
| O=c1c2cccnc2nc(SCCO)n1CC1CCCO1 (stereo not drawn) [CBK306113] | 80.3 |
